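Grown in 96-well plates, cells were treated for 48 hours with each compound at five concentrations. Insufficient inhibition: endpoint recorded as highest concentration tested. Here, GI50 denotes the concentration required for 50% inhibition of growth.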 Calls of active or inactive are those of the source. No stated cut-off is given here; in the data, active = GI50 up to about 1.1 µM and inactive = higher.
Key:
Assay in all cases: growth of human tumour cells (NCI), 48 h
BT-549 = system: BT-549
CCRF-CEM = system: CCRF-CEM
HCT-116 = system: HCT-116
HL-60 = system: HL-60
K562 = system: K562
LOX IMVI = system: LOX IMVI
MCF7 = system: MCF7
MOLT-4 = system: MOLT-4
Malme-3M = system: Malme-3M
NCI-H23 = system: NCI-H23
NCI/ADR-RES = system: NCI/ADR-RES
OVCAR-8 = system: OVCAR-8
RXF 393 = system: RXF 393
SF-295 = system: SF-295
SF-539 = system: SF-539
SN12C = system: SN12C
SNB-19 = system: SNB-19
U-251 = system: U-251
UACC-257 = system: UACC-257
UO-31 = system: UO-31

SMILES	GI50 (BT-549)	GI50 (CCRF-CEM)	GI50 (HCT-116)	GI50 (HL-60)	GI50 (K562)	GI50 (LOX IMVI)	GI50 (MCF7)	GI50 (MOLT-4)	GI50 (Malme-3M)	GI50 (NCI-H23)	GI50 (NCI/ADR-RES)	GI50 (OVCAR-8)	GI50 (RXF 393)	GI50 (SF-295)	GI50 (SF-539)	GI50 (SN12C)	GI50 (SNB-19)	GI50 (U-251)	GI50 (UACC-257)	GI50 (UO-31)
Nc1c2ccccc2nc2ccc3c(=O)cc(-c4ccccc4)oc3c12	2.8 µM (inactive)	0.445 µM (active)	0.299 µM (active)	0.977 µM (active)	0.272 µM (active)	0.406 µM (active)	0.649 µM (active)	0.435 µM (active)	1.66 µM (inactive)	1.53 µM (inactive)	1.35 µM (inactive)	0.611 µM (active)	1.32 µM (inactive)	0.719 µM (active)	1.33 µM (inactive)	0.979 µM (active)	1.26 µM (inactive)	0.531 µM (active)	1.75 µM (inactive)	1.5 µM (inactive)
COC(=O)C1SC(N(C)c2ccccc2)=NC12c1ccccc1Nc1ccccc12 (stereo not drawn)	15.9 µM (inactive)	6.71 µM (inactive)	23.3 µM (inactive)	12.7 µM (inactive)	15.1 µM (inactive)	19.1 µM (inactive)	22 µM (inactive)	7.31 µM (inactive)	15.8 µM (inactive)	13.6 µM (inactive)	13.5 µM (inactive)	8.89 µM (inactive)	31.3 µM (inactive)	17.2 µM (inactive)	18.4 µM (inactive)	22.4 µM (inactive)	23.9 µM (inactive)	27.5 µM (inactive)	25.2 µM (inactive)	22.5 µM (inactive)
Cn1c(=O)c2c(nc3n(C)c(=O)c4ccccc4n23)n(C)c1=O	> 80.4 µM (inactive)	13.5 µM (inactive)	71 µM (inactive)	24 µM (inactive)	> 67 µM (inactive)	38.7 µM (inactive)	17.9 µM (inactive)	3.18 µM (inactive)	> 49.3 µM (inactive)	40.4 µM (inactive)	59.4 µM (inactive)	33 µM (inactive)	> 61.8 µM (inactive)	22.4 µM (inactive)	34.8 µM (inactive)	29.2 µM (inactive)	25.8 µM (inactive)	34 µM (inactive)	> 100 µM (inactive)	39.1 µM (inactive)
CC/C=C\C=C/C(=O)N/C=C/CCC	> 100 µM (inactive)	4.27 µM (inactive)	38.9 µM (inactive)	> 100 µM (inactive)	> 100 µM (inactive)	> 100 µM (inactive)	78.3 µM (inactive)	22.8 µM (inactive)	> 100 µM (inactive)	> 100 µM (inactive)	> 100 µM (inactive)	> 100 µM (inactive)	> 100 µM (inactive)		> 100 µM (inactive)	> 100 µM (inactive)	> 100 µM (inactive)	> 100 µM (inactive)	> 100 µM (inactive)	> 100 µM (inactive)
CC1=NN(c2cccc(Cl)c2)C2(C1=C/C=C/c1ccccc1)C(Cl)C(=O)N2c1nc2ccccc2s1 (stereo not drawn)	32.1 µM (inactive)	8.05 µM (inactive)	19.3 µM (inactive)	3.08 µM (inactive)	6.14 µM (inactive)	13.1 µM (inactive)	9.14 µM (inactive)	1.53 µM (inactive)	39 µM (inactive)	16.9 µM (inactive)	40.5 µM (inactive)	17.9 µM (inactive)	23.1 µM (inactive)	11 µM (inactive)	19.2 µM (inactive)	34.6 µM (inactive)	60.8 µM (inactive)	6.92 µM (inactive)	36.7 µM (inactive)	21.4 µM (inactive)
Clc1ccc(COC(Cn2ccnc2)c2ccc(Cl)cc2Cl)cc1 (stereo not drawn) [ECONAZOLE NITRATE]	15.2 µM (inactive)	5.87 µM (inactive)	6.67 µM (inactive)	4.19 µM (inactive)	4.62 µM (inactive)	9.57 µM (inactive)	8.26 µM (inactive)	2.75 µM (inactive)	16.4 µM (inactive)	13.2 µM (inactive)	5.42 µM (inactive)	14.8 µM (inactive)	14.1 µM (inactive)	9.57 µM (inactive)	13.6 µM (inactive)	12.1 µM (inactive)	14.9 µM (inactive)	12.6 µM (inactive)	10.4 µM (inactive)	3.41 µM (inactive)
Cc1cc(N(CC(C)Br)CC(C)Br)ccc1/N=N/c1ccccc1C(=O)O (stereo not drawn)	11.3 µM (inactive)	19.6 µM (inactive)	4.99 µM (inactive)	6.05 µM (inactive)	1.03 µM (active)	7.59 µM (inactive)	0.787 µM (active)	16.9 µM (inactive)	4.61 µM (inactive)	3.81 µM (inactive)	15.2 µM (inactive)	13.2 µM (inactive)	0.881 µM (active)	0.948 µM (active)	1.45 µM (inactive)	4.72 µM (inactive)	9.04 µM (inactive)	4.8 µM (inactive)	4.53 µM (inactive)	5.86 µM (inactive)
CCN1CCN(c2nc3ccccc3c3c2CCOc2ccccc2-3)CC1	> 100 µM (inactive)	21.3 µM (inactive)	29.3 µM (inactive)	1.05 µM (active)	18.1 µM (inactive)	16.5 µM (inactive)	> 39.8 µM (inactive)	10.6 µM (inactive)	17.2 µM (inactive)	> 62.5 µM (inactive)	> 46.3 µM (inactive)	> 45.1 µM (inactive)	25.2 µM (inactive)	27.4 µM (inactive)	> 46.2 µM (inactive)	> 55.3 µM (inactive)	39.1 µM (inactive)	32.9 µM (inactive)	18.1 µM (inactive)	24.6 µM (inactive)
C=CCN1C(=O)C[C@H](Cc2ccccc2)NC(=O)C[C@H](Cc2ccccc2)N(CC=C)C(=O)C[C@H](Cc2ccccc2)NC(=O)C[C@@H]1Cc1ccccc1	95.5 µM (inactive)	4.76 µM (inactive)	14.8 µM (inactive)	3.35 µM (inactive)	3.45 µM (inactive)	3.99 µM (inactive)	4.04 µM (inactive)	2.69 µM (inactive)	3.81 µM (inactive)	> 100 µM (inactive)	4.37 µM (inactive)	39.4 µM (inactive)	7.14 µM (inactive)	23.6 µM (inactive)	46.1 µM (inactive)	5.7 µM (inactive)	> 100 µM (inactive)	12.9 µM (inactive)	6.97 µM (inactive)	7.03 µM (inactive)
COc1c(N2CCCCC2)c2c(=O)c3ccccc3oc2c2cc(C)oc12	21.5 µM (inactive)	8.63 µM (inactive)	2.34 µM (inactive)	20.9 µM (inactive)	6.1 µM (inactive)	14 µM (inactive)	16.7 µM (inactive)	4.03 µM (inactive)	19.3 µM (inactive)	18.5 µM (inactive)	15.3 µM (inactive)	16.9 µM (inactive)	15.6 µM (inactive)	18.8 µM (inactive)	35.9 µM (inactive)	24.8 µM (inactive)	40 µM (inactive)	24.4 µM (inactive)	33 µM (inactive)	11.3 µM (inactive)
O=C(CNc1ccc(Cl)cc1Cl)Nn1c(-c2ccccc2)nc2ccccc2c1=O	16.3 µM (inactive)	2.9 µM (inactive)	16.7 µM (inactive)	20 µM (inactive)	10.2 µM (inactive)	9.95 µM (inactive)	13.4 µM (inactive)	5.14 µM (inactive)	18.2 µM (inactive)	12.6 µM (inactive)	20.3 µM (inactive)	35 µM (inactive)	18.9 µM (inactive)	14.9 µM (inactive)	19.6 µM (inactive)	16.1 µM (inactive)	18.5 µM (inactive)	> 10 µM (inactive)	21.6 µM (inactive)	22.4 µM (inactive)
COc1ccc(C(=O)c2cc(OC)c(OC)c(OC)c2)cc1	0.923 µM (active)	0.0879 µM (active)	0.0703 µM (active)	0.031 µM (active)	0.0392 µM (active)	0.147 µM (active)	0.0991 µM (active)	0.0715 µM (active)	0.0586 µM (active)	0.324 µM (active)	0.054 µM (active)	0.382 µM (active)	0.331 µM (active)	0.0399 µM (active)	0.152 µM (active)	0.705 µM (active)	0.199 µM (active)	0.206 µM (active)	0.769 µM (active)	1 µM (active)
CCCCCc1cc(CCCC)sc1-c1ccco1	> 100 µM (inactive)	30.5 µM (inactive)	29.6 µM (inactive)	21.7 µM (inactive)	> 58.2 µM (inactive)	49.9 µM (inactive)	76.4 µM (inactive)	51.9 µM (inactive)	40 µM (inactive)	> 100 µM (inactive)	> 100 µM (inactive)	> 100 µM (inactive)	45.8 µM (inactive)	> 85.5 µM (inactive)	> 93.8 µM (inactive)	> 100 µM (inactive)	> 100 µM (inactive)	> 76.7 µM (inactive)	> 64.3 µM (inactive)	> 100 µM (inactive)
COc1ccc(C(=O)/C=C/c2cc(O)c(O)c(F)c2F)c(OC)c1	19.2 µM (inactive)	3.92 µM (inactive)	6.95 µM (inactive)	4.22 µM (inactive)	17.9 µM (inactive)	13.6 µM (inactive)	3.22 µM (inactive)		15.5 µM (inactive)	13.8 µM (inactive)	10.1 µM (inactive)	20.8 µM (inactive)	18.2 µM (inactive)	18.5 µM (inactive)	16.7 µM (inactive)	10.3 µM (inactive)	27.2 µM (inactive)	11.1 µM (inactive)	15.9 µM (inactive)	35.2 µM (inactive)

Source: ChEMBL document CHEMBL1201862, “PubChem BioAssay data set” (2004)
